# In publication PMC12193833, “Toxicity Assessment and Antifungal Potential of Copper(II) and Silver(I) Complexes with 1,10-Phenanthroline-5,6-dione Against Drug-Resistant Clinical Isolates of Cryptococcus gattii and Cryptococcus neoformans” (Journal of Fungi, 2025):
# How the values were obtained:
# [1] = test system: C. gattii clinical isolates; test: Susceptibility to clinically available antifungals, CLSI M27-A3 microdilution; type: cell-based; details: Cryptococcus gattii
# Excerpt: (§1) Six clinical isolates belonging to the Cryptococcus genus were obtained from patients who attended the Instituto Nacional de Infectologia Evandro Chagas (INI), Fundação Oswaldo Cruz (FIOCRUZ), and were kindly provided by Dr. Rodrigo Almeida-Paes (INI-FIOCRUZ). To comply with ethical standards and institutional agreements between UFRJ and FIOCRUZ, patient data were not disclosed. In this sense, the C. neoformans isolates were designated CFP00213 (213), CFP00223 (223), and CFP00350 (350), while the C. gattii isolates were labeled CFP00023 (23), CFP00025 (25), and CFP00027 (27). Before each experiment, an aliquot of the culture was transferred from Sabouraud dextrose agar (2% glucose, 1% peptone, and 0.5% yeast extract) to RPMI 1640 medium (Sigma-Aldrich, St. Louis, MO, USA), pH 7.2, buffered with 0.165 M MOPS (Sigma-Aldrich, St. Louis, MO, USA). RPMI medium induces the expression of capsular polysaccharides, the primary virulence factor of Cryptococcus cells. The cultures were incubated at 37 °C for 48 h to promote cell proliferation, stimulate metabolic activation, and enhance capsular development. Yeast cell counts were determined using a Neubauer chamber.
# (§2) The susceptibility profile was evaluated using the microdilution method in RPMI 1640 medium buffered with 0.165 M MOPS, following the M27-A3 protocol for yeasts established by the Clinical and Laboratory Standards Institute (CLSI). […] Each fungal isolate was classified as either wild-type or non-wild-type for each antifungal based on the epidemiological cutoff values provided in CLSI M59 ED3, 2020 [32].
# [2] = test system: C. neoformans clinical isolates; test: as above; type: cell-based; details: Cryptococcus neoformans
# Excerpt: as §1, §2
# [3] = test system: C. neoformans clinical isolates; test: MIC/MFC of test compounds, microdilution; type: cell-based, Cryptococcus neoformans
# Excerpt: as §1
# (§3) Following MIC determination, the MFC was assessed by inoculating 10 µL from wells showing no visible fungal growth onto Sabouraud dextrose agar. […] To further support and strengthen the evidence of the anti-Cryptococcus activity of the Cu-phendione and Ag-phendione complexes, we additionally performed MIC/MFC assays using well-characterized standard reference strains: ATCC 28957, H99, T1444 (all C. neoformans), and R265 (C. gattii).
# [4] = test system: C. gattii clinical isolates; test: MIC/MFC of test compounds, microdilution; type: cell-based, Cryptococcus gattii
# Excerpt: as §1, §3
# [5] = test system: Galleria mellonella larvae; test: In vivo acute toxicity, single treatment; details: single inoculation; for Larval survival: 125–1000 µM, 10 µL/larva, 37 °C
# Experimental: In this set of experiments, G. mellonella larvae weighing approximately 0.2–0.3 g and displaying clear, uniform coloration were used. The larvae were inoculated (10 µL/larva) using an insulin syringe (BD Ultra-Fine, Franklin Lakes, NJ, USA) at the last left proleg. […] We also assessed their coloration through visual analysis as an indicator of stress levels. Throughout the experiments, the larvae were maintained at 37 °C [19, 42]. Two distinct treatment protocols were designed to evaluate the effects of the test compounds on larval survivability, as detailed below.
# For the acute toxicity analysis, the test compounds were administered to the larvae in a single inoculation at concentrations ranging from 1000 to 125 μM. Each group consisted of 10 larvae, while the control group received only sterile PBS with 4% DMSO. […] The SI was calculated using the following equation: SI = G. mellonella CC50/Cryptococcus MIC.
# [6] = test system: six clinical Cryptococcus isolates; test: Susceptibility to clinically available antifungals, all six isolates; type: cell-based, Cryptococcus neoformans and Cryptococcus gattii
# Excerpt: as §1, §2
# G. mellonella = details: cited from earlier work
# G. mellonella larvae = test system: G. mellonella larvae; design: method as in PMID 32265890; details: cited from earlier work; for Mortality rate in G. mellonella larvae: 750 µg/mL; for Toxicity in G. mellonella larvae: up to 500 µg/mL, within 72 h
# [7] = 24 h, C. gattii isolate 23, 37 °C
# [8] = 24 h, C. gattii isolate 25, 37 °C
# [9] = 24 h, C. gattii isolate 27, 37 °C
# [10] = C. gattii isolate 23, value in brackets
# [11] = C. gattii isolate 25, value in brackets
# [12] = C. gattii isolate 27, value in brackets
# [13] = 24 h, C. neoformans isolate 213, 37 °C
# [14] = 24 h, C. neoformans isolate 223, 37 °C
# [15] = 24 h, C. neoformans isolate 350, 37 °C
# [16] = C. neoformans isolate 213, value in brackets
# [17] = C. neoformans isolate 223, value in brackets
# [18] = C. neoformans isolate 350, value in brackets
# [19] = C. neoformans isolate 213, read-out: MIC
# [20] = C. neoformans isolate 223, read-out: MIC
# [21] = C. neoformans isolate 350, read-out: MIC
# [22] = C. gattii isolate 23, read-out: MIC
# [23] = C. gattii isolate 25, read-out: MIC
# [24] = C. gattii isolate 27, read-out: MIC
# [25] = across all six clinical Cryptococcus isolates
# [26] = all C. neoformans clinical isolates
# [27] = all C. gattii clinical isolates
molecule,measurement,setting,value
"Nc1[nH]c(=O)ncc1F [Flucytosine, flucytosine]",MIC,[1]; [7],0.125 µg/mL
same,MIC,[1]; [8],4 µg/mL
same,MIC,[1]; [9],4 µg/mL
same,MIC,[1]; [10],0.96 µM
same,MIC,[1]; [11],30 µM
same,MIC,[1]; [12],30 µM
same,MIC,[2]; [13],4 µg/mL
same,MIC,[2]; [14],64 µg/mL
same,MIC,[2]; [15],16 µg/mL
same,MIC,[2]; [16],30 µM
same,MIC,[2]; [17],496 µM
same,MIC,[2]; [18],124 µM
"O=C1C(=O)c2cccnc2-c2ncccc21 [Phendione, 1,10-Phenanthroline-5,6-dione]",MIC,[3]; [19],12.5 µM
same,MIC,[3]; [20],12.5 µM
same,MIC,[3]; [21],12.5 µM
same,MFC,"[3]; Cryptococcus neoformans, C. neoformans isolate 213",> 100 µM
same,MFC,"[3]; Cryptococcus neoformans, C. neoformans isolate 223",100 µM
same,MFC,"[3]; Cryptococcus neoformans, C. neoformans isolate 350",100 µM
same,MFC,"[3]; Cryptococcus neoformans, all C. neoformans clinical isolates",≥ 100 µM
same,MIC,"[3]; Cryptococcus neoformans, all C. neoformans clinical isolates, read-out: MIC",12.5 µM
same,MIC,[4]; [22],12.5 µM
same,MIC,[4]; [23],12.5 µM
same,MIC,[4]; [24],12.5 µM
same,MFC,"[4]; Cryptococcus gattii, C. gattii isolate 23",> 100 µM
same,MFC,"[4]; Cryptococcus gattii, C. gattii isolate 25",100 µM
same,MFC,"[4]; Cryptococcus gattii, C. gattii isolate 27",> 100 µM
same,MFC,"[4]; Cryptococcus gattii, all C. gattii clinical isolates",≥ 100 µM
same,MIC,"[4]; Cryptococcus gattii, all C. gattii clinical isolates, read-out: MIC",12.5 µM
same,Larval survival,[5],100%
"C[C@@H](c1ncncc1F)[C@](O)(Cn1cncn1)c1ccc(F)cc1F [Voriconazole, voriconazole]",MIC,[1]; [7],4 µg/mL
same,MIC,[1]; [8],2 µg/mL
same,MIC,[1]; [9],4 µg/mL
same,MIC,[1]; [10],11.4 µM
same,MIC,[1]; [11],5.72 µM
same,MIC,[1]; [12],11.4 µM
same,MIC,[2]; [13],0.5 µg/mL
same,MIC,[2]; [14],16 µg/mL
same,MIC,[2]; [15],2 µg/mL
same,MIC,[2]; [16],1.4 µM
same,MIC,[2]; [17],45.8 µM
same,MIC,[2]; [18],5.72 µM
same,MIC,[6]; [25],0.5 to 16 µg/mL
"O.O.O.O.O.O=C([O-])c1ccc(C(=O)[O-])cc1.[Mn+2].c1cnc2c(c1)ccc1cccnc12.c1cnc2c(c1)ccc1cccnc12 [[Mn(terephthalic acid)(1,10-phenanthroline)2]·5H2O]",Gallerimycin expression,G. mellonella,upregulated
same,RNA levels encoding transferrin and inducible metalloproteinase inhibitor protein (IMPI),G. mellonella,increased
"[Ag+].[O-][Cl+3]([O-])([O-])[O-] [AgClO4, silver perchlorate]",MFC,[3]; C. neoformans isolate 213,> 100 µM
same,MIC,[3]; [19],1.56 µM
same,MFC,[3]; C. neoformans isolate 223,> 100 µM
same,MIC,[3]; [20],1.56 µM
same,MFC,[3]; C. neoformans isolate 350,> 100 µM
same,MIC,[3]; [21],1.56 µM
same,MFC,[3]; [26],> 100 µM
same,MIC,"[3]; all C. neoformans clinical isolates, read-out: MIC",1.56 µM
same,MFC,[4]; C. gattii isolate 23,12.5 µM
same,MIC,[4]; [22],1.56 µM
same,MFC,[4]; C. gattii isolate 25,12.5 µM
same,MIC,[4]; [23],1.56 µM
same,MFC,[4]; C. gattii isolate 27,12.5 µM
same,MIC,[4]; [24],1.56 µM
same,MFC,[4]; [27],12.5 µM
same,MIC,"[4]; all C. gattii clinical isolates, read-out: MIC",1.56 µM
same,Larval mortality,[5]; 250 µM,20%
same,Larval mortality,[5]; 500 µM,20%
same,Larval mortality,[5]; 1000 µM,50%
"C[C@@H]1[C@H](O)[C@@H](C)/C=C/C=C/C=C/C=C/C=C/C=C/C=C/[C@H](O[C@@H]2O[C@H](C)[C@@H](O)[C@H](N)[C@@H]2O)C[C@@H]2O[C@](O)(C[C@@H](O)C[C@@H](O)[C@H](O)CC[C@@H](O)C[C@@H](O)CC(=O)O[C@H]1C)C[C@H](O)[C@H]2C(=O)O [Amphotericin B, amphotericin B]",MIC,[1]; [7],0.03 µg/mL
same,MIC,[1]; [8],0.03 µg/mL
same,MIC,[1]; [9],0.03 µg/mL
same,MIC,[1]; [10],0.03 µM
same,MIC,[1]; [11],0.03 µM
same,MIC,[1]; [12],0.03 µM
same,MIC,[2]; [13],0.03 µg/mL
same,MIC,[2]; [14],> 16 µg/mL
same,MIC,[2]; [15],0.03 µg/mL
same,MIC,[2]; [16],0.03 µM
same,MIC,[2]; [17],> 17.3 µM
same,MIC,[2]; [18],0.03 µM
same,MIC,[6]; all other Cryptococcus isolates (except C. neoformans isolate printed as 233),0.03 µg/mL
"O.O.O.O.O=C([O-])c1cccc(C(=O)[O-])c1.O=C([O-])c1cccc(C(=O)[O-])c1.[Mn+2].[Mn+2].c1cnc2c(c1)ccc1cccnc12.c1cnc2c(c1)ccc1cccnc12.c1cnc2c(c1)ccc1cccnc12 [[Mn2(isophthalic acid)2(1,10-phenanthroline)3]·4H2O]",RNA levels encoding transferrin and inducible metalloproteinase inhibitor protein (IMPI),G. mellonella,increased
"CC[C@H](C)C[C@H](C)CCCCCCCCC(=O)N[C@H]1C[C@@H](O)[C@@H](NCCN)NC(=O)[C@@H]2[C@@H](O)CCN2C(=O)[C@H]([C@H](O)CCN)NC(=O)[C@H]([C@H](O)[C@@H](O)c2ccc(O)cc2)NC(=O)[C@@H]2C[C@@H](O)CN2C(=O)[C@H]([C@@H](C)O)NC1=O [Caspofungin, caspofungin]",MIC,[1]; [7],> 8 µg/mL
same,MIC,[1]; [8],> 8 µg/mL
same,MIC,[1]; [9],> 8 µg/mL
same,MIC,[1]; [10],> 7.3 µM
same,MIC,[1]; [11],> 7.3 µM
same,MIC,[1]; [12],> 7.3 µM
same,MIC,[2]; [13],> 8 µg/mL
same,MIC,[2]; [14],> 8 µg/mL
same,MIC,[2]; [15],> 8 µg/mL
same,MIC,[2]; [16],> 7.3 µM
same,MIC,[2]; [17],> 7.3 µM
same,MIC,[2]; [18],> 7.3 µM
same,MIC,[6]; [25],> 8 µg/mL
same,Hemocyte density,G. mellonella,do not increase hemocyte density
"O.O.O.O.O.O.[Cu+2].[O-][Cl+3]([O-])([O-])[O-].[O-][Cl+3]([O-])([O-])[O-] [Cu(ClO4)2.6H2O, copper perchlorate]",MIC,[3]; C. neoformans isolate 213,>100/ND µM
same,MIC,[3]; C. neoformans isolate 223,>100/ND µM
same,MIC,[3]; C. neoformans isolate 350,>100/ND µM
same,MIC,[3]; [26],no antifungal activity
same,MIC,[4]; C. gattii isolate 23,>100/ND µM
same,MIC,[4]; C. gattii isolate 25,>100/ND µM
same,MIC,[4]; C. gattii isolate 27,>100/ND µM
same,MIC,[4]; [27],no antifungal activity
same,Larval survival,[5],100%
"O.O.O=C([O-])c1ccccc1C(=O)[O-].[Mn+2].c1cnc2c(c1)ccc1cccnc12 [[Mn(phthalic acid)(1,10-phenanthroline)(H2O)2]]",Mortality rate in G. mellonella larvae,G. mellonella larvae,40%
same,Toxicity in G. mellonella larvae,G. mellonella larvae,no toxicity
"{[Cu(3,6,9-trioxaundecanedioic acid)(1,10-phenanthroline)2]3H2O·EtOH}n",Mortality rate in G. mellonella larvae,G. mellonella larvae,60%
same,Toxicity in G. mellonella larvae,G. mellonella larvae,no toxicity
"[Ag+].[O-][Cl+3]([O-])([O-])[O-].c1cnc2c(c1)ccc1cccnc12.c1cnc2c(c1)ccc1cccnc12 [[Ag(1,10-phenanthroline)2]ClO4]",Toxicity in G. mellonella larvae,G. mellonella larvae,no toxicity
same,Galiomycin expression,G. mellonella,increased
same,RNA levels encoding transferrin and inducible metalloproteinase inhibitor protein (IMPI),G. mellonella,increased
"OC(Cn1cncn1)(Cn1cncn1)c1ccc(F)cc1F [Fluconazole, fluconazole]",MIC,[1]; [7],32 µg/mL
same,MIC,[1]; [8],16 µg/mL
same,MIC,[1]; [9],16 µg/mL
same,MIC,[1]; [10],104 µM
same,MIC,[1]; [11],52.2 µM
same,MIC,[1]; [12],52.2 µM
same,MIC,[6]; [25],≥ 4 µg/mL
"{[Mn(3,6,9-trioxoundecanedioic acid)(1,10-phenanthroline)2]·3H2O·EtOH}n",RNA levels encoding transferrin and inducible metalloproteinase inhibitor protein (IMPI),G. mellonella,increased
"O.O.O.O.O.O.O.O.O.O.O.O.O.O.O.O.O=C([O-])c1cccc(C(=O)[O-])c1.O=C([O-])c1cccc(C(=O)[O-])c1.[Mn+2].[Mn+2].c1cnc2c(c1)ccc1cccnc12.c1cnc2c(c1)ccc1cccnc12.c1cnc2c(c1)ccc1cccnc12.c1cnc2c(c1)ccc1cccnc12.c1cnc2c(c1)ccc1cccnc12 [{[Mn(1,10-phenanthroline)2(H2O)2]}2(isophthalic acid)2(1,10-phenanthroline)·12H2O]",Mortality rate in G. mellonella larvae,G. mellonella larvae,13%
